Drawing on patent publication US4975538A, “Antibiotic sulfonylaminocarbonyl activated beta-lactams” (The Upjohn Company, priority 1989, dated 1990), this text covers MIC for four compounds.

Values after ≈ are worked out from the molar mass of the structure shown. Bounds are passed on as bounds.

Holding throughout (assay): Minimum Inhibitory Concentration (MIC), agar dilution in Mueller Hinton Agar
Format in all cases: cell-based

In one test the test system is Streptococcus Pneumoniae. The following applies: 20 h, culture number 41. As to the method:
(§1) The compounds of this invention and their respective pharmaceutically acceptable salts have antibiotic activity against a variety of gram-negative bacteria including Escherichia coli, Klebsiella pneumoniae, and Pseudomonas aeruginosa. The compounds are useful for treating bacterial infections in animals, including and most preferably humans. Compounds of the invention are tested for in vitro antimicrobial activity using standard testing procedures such as the determination of minimum inhibitory concentration (MIC) by methods described in "Methods for Dilution Antimicrobial Susceptibility Tests for Bacteria That Grow Aerobically" (M7-A) Published December 1985 by the National Committee for Clinical Laboratory Standards, 771 East Lancaster Avenue, Villanova, Pa. 19084. Briefly, MIC values are determined in unsupplemented Mueller Hinton Agar (MHA). The compounds tested are diluted serially into molten MHA at 47° C. The agar is poured into petri dishes and allowed to harden. The various bacteria used for testing are grown overnight on MHA at 35° C. and transferred to Tryptiease Soy Broth (TSB) until a turbidity of 0.5 McFarland standard is obtained. The bacteria are diluted one to twenty in TSB and inoculated on the plates (1 μl using a Steers replicator).

A further test concerns Pseudomonas Aeruginosa. The following applies: 20 h. As to the method:
as §1

The test system of the next test is Staphylococcus Aureus. To be noted: 20 h. As to the method: as §1
A further test concerns Proteus Vulgaris. The following applies: 20 h, culture number 9679. As to the method: as §1
Another test has as its system Enterobacter Cloacae. The following applies: 20 h. On the procedure:
as §1

The next test deals with Streptococcus Faecalis. The following applies: Enterococcus faecalis, 20 h; culture number 694. On the procedure:
as §1

The test system of another test is Citrobacter Freundli. To be noted: 20 h, culture number 3507. As to the method:
as §1

A further test has as its system Escherichia Coli. The following applies: 20 h. As to the method:
as §1

A further test concerns Klebsiella Pneumoniae. To be noted: 20 h, culture number 58. As to the method: as §1
The next test relates to Streptococcus Pyogenes. The following applies: 20 h, culture number 152. As to the method:
as §1

The next test deals with Klebsiella Oxytoca. To be noted: 20 h. On the procedure:
as §1

Another test concerns Serratia Marcescens. The following applies: 20 h. As to the method:
as §1

One may read the MIC as the least concentration at which growth counts as inhibited. Read a low MIC as greater potency. As to `CC(C)(O/N=C(\C(=O)N[C@H]1CN(C(=O)NS(=O)(=O)N2CCN(NC(=O)c3cc(=O)c(O)cn3C3CC3)C2=O)C1=O)c1csc(N)n1)C(=O)O` [Compound E42, Propanoic acid, 2-[[[1-(2-amino-4-thiazolyl)-2-[[1-[[[[3-[[(1-cyclopropyl-1,4-dihydro-5-hydroxy-4-oxo-2-pyridinyl)carbonyl]amino]-2-oxo-1-imidazolidinyl]sulfonyl]amino]carbonyl]-2-oxo-3-azetidinyl]amino]-2-oxoethylidene]amino]oxy]-2-methyl-, [S-(Z)]-], the MIC in the test on Streptococcus Pneumoniae was more than 64 µg/mL; with Pseudomonas Aeruginosa (culture number 231), 16 µg/mL (≈ 22.1 µM); in the test on Pseudomonas Aeruginosa (culture number 9191), 16 µg/mL (≈ 22.1 µM); against Staphylococcus Aureus (culture number 3665), more than 64 µg/mL; with Staphylococcus Aureus (culture number 6685), more than 64 µg/mL; in the test with Staphylococcus Aureus (culture number 9218), more than 64 µg/mL. Further, the MIC was 2 µg/mL (≈ 2.76 µM) in the test on Proteus Vulgaris; 64 µg/mL (≈ 88.3 µM) in the test on Enterobacter Cloacae (culture number 9381); 4 µg/mL (≈ 5.52 µM) with Enterobacter Cloacae (culture number 9382); more than 64 µg/mL with Streptococcus Faecalis; 0.5 µg/mL (≈ 0.69 µM) with Citrobacter Freundli; 0.06 µg/mL (≈ 0.0828 µM) against Escherichia Coli (culture number 9379). Moreover, the MIC is 0.03 µg/mL (≈ 0.0414 µM) with Escherichia Coli (culture number 9380); 0.125 µg/mL (≈ 0.172 µM) against Escherichia Coli (culture number 9451); 2 µg/mL (≈ 2.76 µM) against Klebsiella Pneumoniae; 64 µg/mL (≈ 88.3 µM) against Streptococcus Pyogenes; 1 µg/mL (≈ 1.38 µM) with Klebsiella Oxytoca (culture number 9383); 0.5 µg/mL (≈ 0.69 µM) with Klebsiella Oxytoca (culture number 9384). Besides, in the test with Serratia Marcescens (culture number 6888), the MIC worked out at 0.5 µg/mL (≈ 0.69 µM).
As to `CC(C)(O/N=C(\C(=O)N[C@H]1CN(C(=O)NS(=O)(=O)N2CCN(C(=O)c3cc(=O)c(O)c[nH]3)CC2=O)C1=O)c1csc(N)n1)C(=O)O` [Compound E17], the minimal inhibitory concentration (MIC) in the test on Streptococcus Pneumoniae is more than 64 µg/mL; in the test with Pseudomonas Aeruginosa (culture number 231), 0.5 µg/mL (≈ 0.731 µM); against Pseudomonas Aeruginosa (culture number 9191), 0.5 µg/mL (≈ 0.731 µM); with Staphylococcus Aureus (culture number 3665) it was more than 64 µg/mL; against Staphylococcus Aureus (culture number 6685) it was more than 64 µg/mL; against Staphylococcus Aureus (culture number 9218), more than 64 µg/mL. Moreover, the minimal inhibitory concentration (MIC) was 0.25 µg/mL (≈ 0.366 µM) in the test with Proteus Vulgaris; 64 µg/mL (≈ 93.6 µM) against Enterobacter Cloacae (culture number 9381); 1 µg/mL (≈ 1.46 µM) in the test on Enterobacter Cloacae (culture number 9382); more than 64 µg/mL in the test with Streptococcus Faecalis; 0.25 µg/mL (≈ 0.366 µM) against Citrobacter Freundli; 0.015 µg/mL (≈ 0.0219 µM) against Escherichia Coli (culture number 9379). Further, the MIC in the test on Escherichia Coli (culture number 9380) was less than 0.008 µg/mL; against Escherichia Coli (culture number 9451), 0.015 µg/mL (≈ 0.0219 µM); against Klebsiella Pneumoniae, 1 µg/mL (≈ 1.46 µM); against Streptococcus Pyogenes, 16 µg/mL (≈ 23.4 µM); in the test with Klebsiella Oxytoca (culture number 9383) it was 0.5 µg/mL (≈ 0.731 µM); in the test on Klebsiella Oxytoca (culture number 9384) it was 0.125 µg/mL (≈ 0.183 µM). For the same compound, inhibition of growth in the test with Serratia Marcescens (culture number 6888) (MIC) required 0.125 µg/mL (≈ 0.183 µM).
Consider `Nc1nc(C(=NOCC(=O)O)C(=O)NC2CN(C(=O)NS(=O)(=O)N3CC(CNC(=O)c4cc(=O)c(O)c[nH]4)OC3=O)C2=O)cs1` (stereo not drawn) [E27 (a), [[[1-(2-amino-4-thiazolyl)-2-[[1-[[[[4-[[(1,4-dihydro-5-hydroxy-4-oxo-2-pyridinyl)carbonyl]amino]-[2-oxo-5-oxazolydinyl]methyl]sulfonyl]amino]carbonyl]-2-oxo-3-azetidinyl]amino]-2-oxoethylidene]amino]oxy] acetic acid], for which the minimum inhibitory concentration (MIC) was 4 µg/mL (≈ 5.96 µM) with Pseudomonas Aeruginosa (culture number 231); 64 µg/mL (≈ 95.3 µM) in the test with Pseudomonas Aeruginosa (culture number 9191); 0.5 µg/mL (≈ 0.745 µM) against Proteus Vulgaris; 128 µg/mL (≈ 191 µM) against Enterobacter Cloacae (culture number 9381); 2 µg/mL (≈ 2.98 µM) against Enterobacter Cloacae (culture number 9382); 0.25 µg/mL (≈ 0.372 µM) against Citrobacter Freundli. For the same compound, the minimal inhibitory concentration (MIC) with Escherichia Coli (culture number 9379) is less than 0.06 µg/mL; in the test on Escherichia Coli (culture number 9380) it was less than 0.06 µg/mL; in the test with Escherichia Coli (culture number 9451) it was less than 0.06 µg/mL; against Klebsiella Pneumoniae, 0.5 µg/mL (≈ 0.745 µM); against Streptococcus Pyogenes, 16 µg/mL (≈ 23.8 µM); in the test on Klebsiella Oxytoca (culture number 9383), 4 µg/mL (≈ 5.96 µM). Besides, the MIC was 0.25 µg/mL (≈ 0.372 µM) with Klebsiella Oxytoca (culture number 9384) and 0.5 µg/mL (≈ 0.745 µM) with Serratia Marcescens (culture number 9888).
`CC(C)(ON=C(C(=O)NC1CN(C(=O)NS(=O)(=O)N2CC(CNC(=O)c3cc(=O)c(O)c[nH]3)OC2=O)C1=O)c1csc(N)n1)C(=O)O` (stereo not drawn) [E27 (b)]: the MIC in the test on Pseudomonas Aeruginosa (culture number 231) came to 4 µg/mL (≈ 5.72 µM); against Pseudomonas Aeruginosa (culture number 9191), 8 µg/mL (≈ 11.4 µM); in the test on Proteus Vulgaris, 0.5 µg/mL (≈ 0.715 µM); against Enterobacter Cloacae (culture number 9381) it was 128 µg/mL (≈ 183 µM); in the test with Enterobacter Cloacae (culture number 9382), 8 µg/mL (≈ 11.4 µM); against Citrobacter Freundli, 0.5 µg/mL (≈ 0.715 µM). Moreover, the minimum inhibitory concentration (MIC) against Escherichia Coli (culture number 9379) turned out to be 0.125 µg/mL (≈ 0.179 µM); in the test on Escherichia Coli (culture number 9380), 0.03 µg/mL (≈ 0.0429 µM); against Escherichia Coli (culture number 9451), 0.06 µg/mL (≈ 0.0858 µM); against Klebsiella Pneumoniae it was 2 µg/mL (≈ 2.86 µM); in the test on Streptococcus Pyogenes, 64 µg/mL (≈ 91.5 µM); in the test with Klebsiella Oxytoca (culture number 9383), 4 µg/mL (≈ 5.72 µM). The results for the MIC in the test on Klebsiella Oxytoca (culture number 9384) and with Serratia Marcescens (culture number 9888) were 0.25 µg/mL (≈ 0.357 µM) and 0.5 µg/mL (≈ 0.715 µM), respectively.
